biological target: CSF1R (Homo sapiens, UniProt P07333); test: Cellular CSF1R inhibition ELISA (p-CSF1R, M-CSF-induced) using THP-1 cells; assay type: cell-based; design: THP-1 cells act as a model for human monocytes; endogenous in cells; host or cells: THP-1
Method in brief: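 THP-1 cells (2×10^5/well, RPMI/10% FBS) were treated with compound, 10 doses in 3-fold steps, for 24 h at 37 °C in 0.2% DMSO final. They were then stimulated 5 min with human M-CSF (10 ng/ml final) and lysed. p-CSF1R was read by sandwich ELISA (HRP/TMB), with a sigmoidal dose-response fit.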

Sequence of CSF1R (P07333 20-972): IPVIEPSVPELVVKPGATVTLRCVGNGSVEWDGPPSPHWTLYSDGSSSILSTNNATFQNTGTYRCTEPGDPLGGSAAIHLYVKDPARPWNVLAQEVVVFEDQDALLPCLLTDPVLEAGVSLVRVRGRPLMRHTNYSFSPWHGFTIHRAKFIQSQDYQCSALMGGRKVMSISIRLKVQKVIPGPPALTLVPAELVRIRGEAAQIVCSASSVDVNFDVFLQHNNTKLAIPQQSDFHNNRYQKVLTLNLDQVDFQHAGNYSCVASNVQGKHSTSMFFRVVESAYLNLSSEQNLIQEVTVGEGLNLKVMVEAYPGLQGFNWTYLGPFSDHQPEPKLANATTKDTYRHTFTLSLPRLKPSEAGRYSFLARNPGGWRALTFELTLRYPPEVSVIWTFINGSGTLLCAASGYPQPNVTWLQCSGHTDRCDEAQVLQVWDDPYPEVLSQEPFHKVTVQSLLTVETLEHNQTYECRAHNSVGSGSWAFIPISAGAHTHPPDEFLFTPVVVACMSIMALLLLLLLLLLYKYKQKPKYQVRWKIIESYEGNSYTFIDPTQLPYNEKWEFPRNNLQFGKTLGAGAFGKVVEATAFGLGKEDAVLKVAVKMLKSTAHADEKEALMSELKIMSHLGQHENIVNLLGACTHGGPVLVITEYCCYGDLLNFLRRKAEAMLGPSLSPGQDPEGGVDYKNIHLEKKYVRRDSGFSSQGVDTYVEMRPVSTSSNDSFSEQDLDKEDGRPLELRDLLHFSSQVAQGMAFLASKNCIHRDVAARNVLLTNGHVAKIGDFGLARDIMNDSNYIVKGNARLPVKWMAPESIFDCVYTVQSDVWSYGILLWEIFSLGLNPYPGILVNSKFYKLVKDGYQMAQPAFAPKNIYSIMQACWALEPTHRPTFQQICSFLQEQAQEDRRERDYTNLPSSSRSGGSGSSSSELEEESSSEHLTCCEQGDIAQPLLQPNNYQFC

IC50	SMILES
< 0.5 µM	COc1cc2nccc(Oc3ccc(NC(=O)c4nn(C5CCN(C)C5)cc4OCC(F)(F)F)nc3)c2cc1OC (stereo not shown) [Compound 91]
0.5 to 1 µM	COc1cc2nccc(Oc3ccc(NC(=O)c4nn(CC(C)C)cc4OCC(F)(F)F)cc3)c2cc1OC [Compound 87]
< 0.5 µM	COc1cc2nccc(Oc3ccc(NC(=O)c4nn(C5CCOCC5)cc4OCC(F)(F)F)nc3)c2cc1OC [Compound 90]
≥ 1 µM	COc1cc2nccc(Oc3ccc(NC(=O)c4nn(C5CCNC5)cc4OCC(F)(F)F)cc3F)c2cc1OC (stereo not shown) [Compound 78]
≥ 1 µM	COc1cc2nccc(Oc3ccc(NC(=O)c4nn(C5CCNC5)cc4OCC(F)(F)F)cc3)c2cc1OC (stereo not shown) [Compound 86]
≥ 1 µM	COc1cc2nccc(Oc3ccc(NC(=O)c4nn(C5CCN(C)C5)cc4OCC(F)(F)F)c(F)c3)c2cc1OC (stereo not shown) [Compound 94]
≥ 1 µM	COc1cc2nccc(Oc3ccc(NC(=O)c4nn(CC(C)O)cc4OCC(F)(F)F)cc3F)c2cc1OC (stereo not shown) [Compound 80]
≥ 1 µM	COc1cc2nccc(Oc3ccc(NC(=O)c4nn(C5CCNC5)cc4OCC(F)(F)F)cc3C)c2cc1OC (stereo not shown) [Compound 81]
< 0.5 µM	COc1cc2nccc(Oc3ccc(NC(=O)c4nn(CC(C)O)cc4OCC(F)(F)F)cc3C)c2cc1OC (stereo not shown) [Compound 83]
< 0.5 µM	COc1cc2nccc(Oc3ccc(NC(=O)c4nn(C5CC5)cc4OCC(F)(F)F)nc3)c2cc1OC [Compound 5]
≥ 1 µM	COc1cc2nccc(Oc3ccc(NC(=O)c4nn(CCN)cc4OCC(F)(F)F)cc3F)c2cc1OC [Compound 79]
≥ 1 µM	COc1cc2nccc(Oc3ccc(NC(=O)c4nn(CCN)cc4OCC(F)(F)F)cc3C)c2cc1OC [Compound 82]
< 0.5 µM	COc1cc2nccc(Oc3ccc(NC(=O)c4nn(CCC5CCCC5)cc4OCC(F)(F)F)nc3)c2cc1OC [Compound 93]
≥ 1 µM	COc1cc2nccc(Oc3ccc(NC(=O)c4nn(C5CCOC5)cc4OCC(F)(F)F)c(F)c3)c2cc1OC (stereo not shown) [Compound 77]
≥ 1 µM	COc1cc2nccc(Oc3ccc(NC(=O)c4nn(CCN)cc4OCC(F)(F)F)cc3)c2cc1OC [Compound 88]
0.5 to 1 µM	COc1cc2nccc(Oc3ccc(NC(=O)c4nn(CC(C)O)cc4OCC(F)(F)F)cc3)c2cc1OC (stereo not shown) [Compound 89]
0.5 to 1 µM	COc1cc2nccc(Oc3ccc(NC(=O)c4nn(C5CCOC5)cc4OCC(F)(F)F)cc3C)c2cc1OC (stereo not shown) [Compound 85]
≥ 1 µM	COc1cc2nccc(Oc3ccc(NC(=O)c4nn(CC5COC5)cc4OCC(F)(F)F)c(F)c3)c2cc1OC [Compound 95]
0.5 to 1 µM	COCCn1cc(OCC(F)(F)F)c(C(=O)Nc2ccc(Oc3ccnc4cc(OC)c(OC)cc34)c(C)c2)n1 [Compound 84]

— patent US12162858B2, “Quinoline derivatives as inhibitors of AXL/MER RTK and CSF1R” (QURIENT CO., LTD., priority 2018, dated 2024)
